These are literature values, as cited in PubChem BioAssay AID1259410 (Chemical Carcinogenesis Research Information System (CCRIS), 2018).

The test system of this data set is rodent tumor promotion studies, tumor incidence. The data set is described as follows: CCRIS tumor promotion studies.

Consider `O=C1C=CC(=O)c2ccccc21`, for which the outcome (Carcinogen: 7,12-DIMETHYLBENZ[A]ANTHRACENE, 57-97-6, Doses [Carcinogen]: 25 NMOL IN 0.2 ML ACETONE ONCE, Doses [Promoter]: 440, 880, 1760 NMOL/MOUSE 1/WK FOR 30 WK BEGINNING 2 WK POST CARCINOGEN DOSE (STUDY DURATION: 32 WK), Doses [Promoter]: 440, 880, 1760 NMOL/MOUSE 1/WK FOR 30 WK BEGINNING 2 WK POST CARCINOGEN DOSE (STUDY DURATION: 32 WK), Route [Carcinogen]: DERMAL, Route [Promoter]: DERMAL, Species: MOUSE, Strain/Sex: SENCAR/FEMALE) was “skin: papilloma”. In the case of `c1ccc(-c2ccccc2)cc1`, the outcome (Carcinogen: N-BUTYL-N-(4-HYDROXYBUTYL)NITROSAMINE, 3817-11-6, Doses [Carcinogen]: 0.05% IN DRINKING WATER FOR 4 WK, Doses [Promoter]: 0, 0.5% IN DIET FOR 32 WK BEGINNING POST CARCINOGEN TREATMENT (STUDY DURATION: 36 WK), Route [Carcinogen]: ORAL, Route [Promoter]: ORAL, Species: RAT, Strain/Sex: F344/MALE) is “urinary bladder: papilloma, carcinoma”. With `O=[Se](O)O`, the outcome runs as follows: (Carcinogen: N-METHYL-N'-NITRO-N-NITROSOGUANIDINE [70-25-7], Doses [Carcinogen]: 20 MG/KG BW DAILY FOR 10 D, Doses [Promoter]: 0, 2, 4 MG/L 1 WK BEFORE MNNG (STUDY DURATION: 43 WKS), Doses [Promoter]: 0, 2, 4 MG/L 1 WK BEFORE MNNG (STUDY DURATION: 43 WKS), Route [Carcinogen]: GAVAGE?, Route [Promoter]: DRINKING WATER, Species: RAT, Strain/Sex: WISTAR/MALE) “stomach: gastric cancer”; (Doses [Carcinogen]: 20 MG/KG/D FOR 10 D, Doses [Promoter]: 2, 4 MG/L WATER ONE WK BEFORE CARCINOGEN (STUDY DURATION: 43 WK), Route [Carcinogen]: GAVAGE, Route [Promoter]: DRINKING WATER, Species: RAT, Strain/Sex: WISTAR (15/GROUP)) “stomach: gastric leiomyoma”.

Turning to `CC(C)(c1ccc(O)cc1)c1ccc(O)cc1`, the outcome (Carcinogen: 7,120Dimethylbenzanthracene (57-97-6), Doses [Carcinogen]: 30 mg/kg bw once to female offspring at 50 days of age, Doses [Promoter]: 0, 25, 250 ug/kg daily for 18 d from d 2 to d 20 postpartum to dams, Doses [Promoter]: 0, 25, 250 ug/kg daily for 18 d from d 2 to d 20 postpartum to dams, Route [Carcinogen]: Intragastric gavage, Route [Promoter]: Intragastric gavage, Species: Rat, Strain/Sex: Sprague Dawley CD/Female) was “breast tumors: incidence increased in offspring of 250 ug/kg dams; latent period”. Regarding `O=C(O)CCC(=O)O`, where the note is “Carcinogen: N-BUTYL-N-(4-HYDROXYBUTYL)NITROSAMINE, 3817-11-6, Doses [Carcinogen]: 0.05% IN DRINKING WATER FOR 4 WK, Doses [Promoter]: 0, 5% IN BASAL DIET BEGINNING POST CARCINOGEN TREATMENT AND CONTINUING FOR 32 WK (STUDY DURATION: 36 WK), Route [Carcinogen]: ORAL, Route [Promoter]: ORAL, Species: RAT, Strain/Sex: F344/MALE”, the outcome was “urinary bladder: papilloma, carcinoma”. `CNCCCN1c2ccccc2CCc2ccccc21`: the outcome (Carcinogen: AZOXYMETHANE, 25843-45-2, Doses [Carcinogen]: 7.4 MG/KG BW IN 0.9% SALINE 1/WK FOR 10 WK, Doses [Promoter]: 0, 10 MG/KG BW IN 0.9% SALINE 1/2 D FOR 10 WK ON SAME DAY AS CARCINOGEN ADMINISTRATION (STUDY DURATION: 35 WK), Route [Carcinogen]: SUBCUTANEOUS, Route [Promoter]: SUBCUTANEOUS, Species: RAT, Strain/Sex: WISTAR/MALE) is “colon: tumor”. On to `Cn1cnc([N+](=O)[O-])c1Sc1ncnc2nc[nH]c12`, for which the outcome (Carcinogen: UV IRRADIATION, Doses [Carcinogen]: 0.53 J/CM2 INCREASED BY 20% EVERY 2 WK TO 1.60 J/CM2 AND MAINTAINED AT 1.60 J/CM2 UNTIL DEATH, ADMINISTERED 5 D/WK FOR 1, Doses [Promoter]: 0, 15 UG/G BEGINNING 2 WK POST FIRST CARCINOGEN DOSE ADMINISTERED 2 HR PRIOR TO EACH CARCINOGEN DOSE (STUDY DURATION: 30, Route [Carcinogen]: DERMAL, Route [Promoter]: INTRAPERITONEAL, Species: MOUSE, Strain/Sex: SKH/HRL/FEMALE) is reported as “skin: tumor”. Regarding `Nc1ncn([C@@H]2O[C@H](CO)[C@@H](O)[C@H]2O)c(=O)n1`, the outcome reads like this: (Carcinogen: DIETHYLNITROSAMINE, 55-18-5, Doses [Carcinogen]: 50 MG/KG IN SALINE ADMINISTERED ONCE 18 HR AFTER PARTIAL HEPATECTOMY, Doses [Promoter]: 0, 2.5, 10 MG/KG 2/WK FOR 9 MO BEGINNING POST CARCINOGEN DOSE (STUDY DURATION: 18 MO), Doses [Promoter]: 0, 2.5, 10 MG/KG 2/WK FOR 9 MO BEGINNING POST CARCINOGEN DOSE (STUDY DURATION: 18 MO), Route [Promoter]: INTRAPERITONEAL, Species: RAT, Strain/Sex: F344/MALE) “liver: hepatocellular carcinoma”; (Carcinogen: DIETHYLNITROSAMINE, 55-18-5, Doses [Carcinogen]: 80 MG/KG 1/WK FOR 5 WK, Doses [Promoter]: 0, 5, 10 MG/KG INJECTED 4, 24, AND 48 HR AFTER EACH CARCINOGEN EXPOSURE (STUDY DURATION: 6 MO), Doses [Promoter]: 0, 5, 10 MG/KG INJECTED 4, 24, AND 48 HR AFTER EACH CARCINOGEN EXPOSURE (STUDY DURATION: 6 MO), Route [Carcinogen]: INTRAPERITONEAL, Route [Promoter]: INTRAPERITONEAL, Species: RAT, Strain/Sex: BD6/MALE) “liver: tumor”. With `Cc1cccc(C)c1N`, the outcome (Carcinogen: N-BIS(2-HYDROXYPROPYL)NITROSAMINE) [53609-64-6], Doses [Carcinogen]: 2400 MG/KG BW ONCE (STUDY DURATION: 53 WK), Doses [Promoter]: 3000 PPM IN DIET FOR 52 WK BEGINNING 1 WK POST LAST CARCINOGEN DOSE (STUDY DURATION: 53 WK), Route [Carcinogen]: SUBCUTANEOUS, Route [Promoter]: ORAL, Species: RAT, Strain/Sex: F344/MALE) is “nasal cavity: carcinoma”. Consider `N[C@@H](Cc1cc(I)c(Oc2cc(I)c(O)c(I)c2)c(I)c1)C(=O)O`, for which the outcome reads like this: (Carcinogen: AZOXYMETHANE, 25843-45-2, Doses [Carcinogen]: 7.4 MG/KG IN 0.9% SALINE 1/WK FOR 10 WK, Doses [Promoter]: 0, 0.2 UG/KG IN OLIVE OIL 1/2 D FOR 35 WK (STUDY DURATION: 35 WK), Route [Carcinogen]: SUBCUTANEOUS, Route [Promoter]: SUBCUTANEOUS, Species: RAT, Strain/Sex: WISTAR/MALE) “colon: tumor”; (Carcinogen: N-METHYL-N'-NITRO-N-NITROSOGUANIDINE, 70-25-7, Doses [Carcinogen]: 25 UG/ML IN DRINKING WATER FOR 25 WK, Doses [Promoter]: 0, 0.2 UG/KG BW IN OLIVE OIL 1/2 D BEGINNING POST CARCINOGEN TREATMENT AND CONTINUING FOR 26 WK (STUDY DURATION: 52 WK), Route [Carcinogen]: ORAL, Route [Promoter]: SUBCUTANEOUS, Species: RAT, Strain/Sex: WISTAR/MALE) “stomach: adenocarcinoma”. In the case of `c1c[nH]cn1`, the outcome (Carcinogen: N-METHYL-N-NITROSOUREA, 684-93-5, Doses [Carcinogen]: 40 MG/KG ONCE, Doses [Promoter]: 1000 MG/KG OF HIGH (20%) FAT DIET BEGINNING 1 WK POST CARCINOGEN DOSE AND CONTINUING FOR DURATION OF STUDY (STUDY DURATI, Route [Carcinogen]: SUBCUTANEOUS, Route [Promoter]: ORAL, Species: RAT, Strain/Sex: SPRAGUE-DAWLEY/FEMALE) is on record as “mammary gland: tumor”. Consider `O=C1OC(O)C(C(Cl)Cl)=C1Cl` (centres undefined), for which the outcome (Carcinogen: N-METHYL-N'-NITRO-N-NITROSOGUANIDINE [70-25-7], SODIUM CHLORIDE [7647-14-5], Doses [Carcinogen]: 100 PPM MNNG IN DRINKING WATER FOR 8 WK, 5% SODIUM CHLORIDE IN DIET FOR 8 WK (STUDY DURATION: 65 WK), Doses [Promoter]: 30 PPM IN DRINKING WATER FOR 53 WK BEGINNING POST LAST CARCINOGEN DOSE (STUDY DURATION: 65 WK), Route [Carcinogen]: ORAL, ORAL, Route [Promoter]: ORAL, Species: RAT, Strain/Sex: WISTAR/MALE) was “glandular stomach: adenocarcinoma”. For the compound `O=NN1CCC[C@H]1c1cccnc1`, the outcome (Carcinogen: Diethylnitrosamine, 55-18-5, Doses [Carcinogen]: 40 mg/l for 4 consecutive d/wk for 180 days, study duration 180 d, Doses [Promoter]: 30 mg/l, 3 d /wk for 180 d, study duration 180 d, Doses [Promoter]: 30 mg/l, 3 d /wk for 180 d, study duration 180 d, Route [Carcinogen]: Oral (drinking water), Route [Promoter]: Oral (drinking water), Species: Mouse, Strain/Sex: CF1/Female (16, 46/Group)) is reported as “stomach: squamous cell carcinoma (33% vs 22%); adenocarcinoma (17% vs 15%); both”. Regarding `Clc1ccc(-c2ccc(Cl)c(Cl)c2)cc1Cl`, the outcome is, setting by setting: (Carcinogen: 7,12-DIMETHYLBENZ[A]ANTHRACENE, 57-97-6, Doses [Carcinogen]: 10 MG IN 0.5 ML CORN OIL ONCE, Doses [Promoter]: 0, 10 MG/KG BW ONCE AT TIME OF CARCINOGEN DOSE THEN 500 UG/G OF FAT IN DIET FOR 1 WK ADMINISTERED TO RATS FED HIGH-FAT (, Route [Carcinogen]: GAVAGE, Route [Promoter]: GAVAGE, ORAL, Species: RAT, Strain/Sex: SPRAGUE-DAWLEY/FEMALE) “mammary gland: tumor”; (Carcinogen: 7,12-DIMETHYLBENZ[A]ANTHRACENE, 57-97-6, Doses [Carcinogen]: 10 MG IN 0.5 ML CORN OIL ONCE, Doses [Promoter]: 0, 10 MG/KG BW ONCE AT TIME OF CARCINOGEN DOSE THEN 500 UG/G OF FAT IN DIET FOR 1 WK ADMINISTERED TO RATS FED LOW FAT (5, Route [Carcinogen]: GAVAGE, Route [Promoter]: GAVAGE, ORAL, Species: RAT, Strain/Sex: SPRAGUE-DAWLEY/FEMALE) “mammary gland: tumor”. For `C[C@@]12C(=O)OC(=O)[C@]1(C)[C@H]1CC[C@@H]2O1`, the outcome (Carcinogen: 7,12-DIMETHYLBENZ(A)ANTHRACENE, Doses [Carcinogen]: TOP, Route [Carcinogen]: DERMAL, Route [Promoter]: DERMAL, Species: MOUSE, Strain/Sex: FEMALE) is “integumentary system (skin)”.
